In patent US8957093B2, “N-biphenylmethylindole modulators of PPARG” (The Scripps Research Institute, priority 2011, dated 2015):
Like-named read-outs stand apart in the source and are kept apart here.

Tests used:
[1] = tested on: PPARG (murine PPARg2 or full-length human PPARG, 3xPPRE-luciferase reporter); assay: Cell-based PPRE-luciferase transactivation assay in COS-1 cells; conditions: for EC50: PPRE-luciferase, COS-1 cells, NA = not active, read-out: EC50 (nM) PPRE
Experimental: Cell-Based Transactivation Assay:
PPRE is a DNA that contains a binding site for PPARG; thus PPRE is a PPAR response element, used herein as a promoter reporter. The binding site is a DR1 response element with the sequence AGGTCA repeated 3 times in tandem and then fused to a construct for luciferase.
Thus, PPRE is the basis of the cell based transactivation assay described below. The plasmid DNA is co-transfected along with a plasmid for PPARG into COS-1 cells. After an overnight incubation, cells are treated with DMSO or compounds.
Confluent COS-1 cells were transfected with 4.5 μg murine PPARg2-pSV Sport or full-length human PPAR9-pSport6, 4.5 μg 3×PPRE-luciferase reporter and 27 μL X-treme Gene 9 transfection reagent in serum-free opti-mem media (Gibco), followed by overnight incubation at 37° C., 5% CO2. Transfected cells were plated in white Perkin Elmer 384-well plates and incubated 4 hours. […] After 18 hour incubation, treated cells were developed with Brite Lite Plus (Perkin Elmer) and read in 384-well Luminescence Perkin Elmer EnVision Multilabel plate reader. Graphs were plotted in triplicate in GraphPad Prism Software as fold change of treated cells over DMSO control cells.

GST-PPARG-LBD = GST-PPARG-LBD (Homo sapiens (Human), UniProt P37231); assay: Lanthascreen PPARG competitive binding assay (Invitrogen, TR-FRET); conditions: Lanthascreen competitive binding; NA = not active; inc = incomplete curve; read-out: IC50 (nM) Lantha
GST-PPARG-LBD, sequence (P37231 238-503): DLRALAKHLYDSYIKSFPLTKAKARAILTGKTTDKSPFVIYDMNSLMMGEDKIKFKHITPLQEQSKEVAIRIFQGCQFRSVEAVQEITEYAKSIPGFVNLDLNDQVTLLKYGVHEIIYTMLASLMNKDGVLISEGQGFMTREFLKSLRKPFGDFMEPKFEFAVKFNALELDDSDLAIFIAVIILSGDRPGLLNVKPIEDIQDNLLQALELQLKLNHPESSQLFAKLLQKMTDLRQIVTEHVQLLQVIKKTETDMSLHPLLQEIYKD
Method in brief: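 TR-FRET competitive binding of GST-PPARG-LBD with 5 nM Tb-GST-antibody and 5 nM Fluormone Pan-PPAR Green tracer, in TR-FRET buffer C. Compound serially diluted from 10 μM, 2 h dark incubation, in triplicate. Readout is 520/490 nm emission ratio (340 nm excitation), expressed as fold change over 2% DMSO control.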

SMILES	EC50 [1] [nM]	PPRE transactivation (% in parentheses) ([1]; rosiglitazone = 100%)	IC50 (GST-PPARG-LBD) [nM]	PPRE transactivation (% in parentheses) [1]
Cc1c(C)n(Cc2ccc(-c3ccccc3-c3nnn[nH]3)cc2)c2ccc(C(=O)N[C@@H](C)c3ccc(Br)cc3)cc12 [Example 37, (S)-1-((2′-(1H-tetrazol-5-yl)-[1,1′-biphenyl]-4-yl)methyl)-N-(1-(4-bromophenyl)ethyl)-2,3-dimethyl-1H-indole-5-carboxamide]	1000	(19%)	> 1000	
C[C@H](NC(=O)c1ccc2c(ccn2Cc2ccc(-c3ccc(O)cc3)cc2)c1)c1ccc([N+](=O)[O-])cc1 [Example 47, (S)-1-((4′-Hydroxy-[1,1′-biphenyl]-4-yl)methyl)-N-(1-(4-nitrophenyl)ethyl)-1H-indole-5-carboxamide]		(0%)	300	
CCC(NC(=O)c1ccc2c(ccn2Cc2cccc(-c3ccccc3C(=O)O)c2)c1)c1ccccc1 (stereo not drawn) [Example 65, 3′-((5-((1-phenylpropyl)carbamoyl)-1H-indol-1-yl)methyl)-[1,1′-biphenyl]-2-carboxylic acid]	116	(18%)	6	
CCC(NC(=O)c1ccc2c(ccn2Cc2cccc(-c3ccc(C(=O)O)cc3)c2)c1)c1ccccc1 (stereo not drawn) [Example 67, 3′-((5-((1-Phenylpropyl)carbamoyl)-1H-indol-1-yl)methyl)-[1,1′-biphenyl]-4-carboxylic acid]	2	(8%)	2	
CCC(NC(=O)c1ccc2c(ccn2Cc2ccccc2-c2cccc(C(=O)O)c2)c1)c1ccccc1 (stereo not drawn) [Example 69, 2′-((5-((1-Phenylpropyl)carbamoyl)-1H-indol-1-yl)methyl)-[1,1′-biphenyl]-3-carboxylic acid]		(0%)	4	
CCC(NC(=O)c1ccc2c(ccn2Cc2ccccc2-c2ccc(C(=O)O)cc2)c1)c1ccccc1 (stereo not drawn) [Example 70, 2′-((5-((1-Phenylpropyl)carbamoyl)-1H-indol-1-yl)methyl)-[1,1′-biphenyl]-4-carboxylic acid]			10	(0%)
Cc1c(C)n(Cc2ccc(-c3ccccc3C(=O)O)cc2)c2ccc(C(=O)NC[C@H](C)c3ccccc3)cc12 [Example 74, (R)-4′-((2,3-dimethyl-5-(2-phenylpropylcarbamoyl)-1H-indol-1-yl)methyl)biphenyl-2-carboxylic acid]	300	(26%)	76	
Cc1c(C)n(Cc2ccc(-c3ccccc3C(=O)O)cc2)c2ccc(C(=O)NCc3ccc(F)cc3)cc12 [Example 76, 4′-((5-(4-fluorobenzylcarbamoyl)-2,3-dimethyl-1H-indol-1-yl)methyl)biphenyl-2-carboxylic acid]	23	(15%)	5	
Cc1c(C)n(Cc2ccc(-c3ccccc3C(=O)O)cc2)c2ccc(C(=O)NCc3ccc4c(c3)OCO4)cc12 [Example 78, 4′-((5-(benzo[d][1,3]dioxol-5-ylmethylcarbamoyl)-2,3-dimethyl-1H-indol-1-yl)methyl)biphenyl-2-carboxylic acid]	1000	(30%)	33	
Cc1c(C)n(Cc2ccc(-c3ccccc3C(=O)O)cc2)c2ccc(C(=O)N[C@@H](CO)c3ccccc3)cc12 [Example 79, (R)-4′-((5-(2-hydroxy-1-phenylethylcarbamoyl)-2,3-dimethyl-1H-indol-1-yl)methyl)biphenyl-2-carboxylic acid]	297	(25%)	37	
Cc1c(C)n(Cc2ccc(-c3ccccc3C(=O)O)cc2)c2ccc(C(=O)NCc3cccc(N)c3)cc12 [Example 80, 4′-((5-(3-aminobenzylcarbamoyl)-2,3-dimethyl-1H-indol-1-yl)methyl)biphenyl-2-carboxylic acid]	2700	(20%)	13	
Cc1ccc(CNC(=O)c2ccc3c(c2)c(C)c(C)n3Cc2ccc(-c3ccccc3C(=O)O)cc2)o1 [Example 84, 4′-((2,3-dimethyl-5-((5-methylfuran-2-yl)methylcarbamoyl)-1H-indol-1-yl)methyl)biphenyl-2-carboxylic acid]	40	(17%)	12	
Cc1c(C)n(Cc2ccc(-c3ccccc3C(=O)O)cc2)c2ccc(C(=O)NCCN3CCOCC3)cc12 [Example 85, 4′-((2,3-dimethyl-5-(2-morpholinoethylcarbamoyl)-1H-indol-1-yl)methyl)biphenyl-2-carboxylic acid]		(0%)	> 1000	
Cc1c(C)n(Cc2ccc(-c3ccccc3C(=O)O)cc2)c2ccc(C(=O)NC3COc4ccccc4C3)cc12 (stereo not drawn) [Example 86, 4′-((5-(chroman-3-ylcarbamoyl)-2,3-dimethyl-1H-indol-1-yl)methyl)biphenyl-2-carboxylic acid]		(0%)	10	
Cc1c(C)n(Cc2ccc(-c3ccccc3C(=O)O)cc2)c2ccc(C(=O)NCC3COc4ccccc4C3)cc12 (stereo not drawn) [Example 87, 4′-((5-(chroman-3-ylmethylcarbamoyl)-2,3-dimethyl-1H-indol-1-yl)methyl)biphenyl-2-carboxylic acid]	200	(18%)	17	
Cc1c(C)n(Cc2ccc(-c3ccccc3C(=O)O)cc2)c2ccc(C(=O)NCC3COc4ccccc4O3)cc12 (stereo not drawn) [Example 88, 4′-((5-((2,3-dihydrobenzo[b][1,4]dioxin-2-yl)methylcarbamoyl)-2,3-dimethyl-1H-indol-1-yl)methyl)biphenyl-2-carboxylic acid]	170	(17%)	11	
Cc1c(C)n(Cc2ccc(-c3ccccc3C(=O)O)cc2)c2ccc(C(=O)NC3CCCC3)cc12 [Example 90, 4′-((5-(cyclopentylcarbamoyl)-2,3-dimethyl-1H-indol-1-yl)methyl)biphenyl-2-carboxylic acid]	> 1000	(18%)	25	
COCCNC(=O)c1ccc2c(c1)c(C)c(C)n2Cc1ccc(-c2ccccc2C(=O)O)cc1 [Example 92, 4′-((5-(2-methoxyethylcarbamoyl)-2,3-dimethyl-1H-indol-1-yl)methyl)biphenyl-2-carboxylic acid]	> 1000	(9%)	17	
Cc1c(C)n(Cc2ccc(-c3ccccc3C(=O)O)cc2)c2ccc(C(=O)NCc3ccc(N)cc3)cc12 [Example 95, 4′-((5-(4-aminobenzylcarbamoyl)-2,3-dimethyl-1H-indol-1-yl)methyl)biphenyl-2-carboxylic acid]		(0%)	4	
Cc1c(C)n(Cc2ccc(-c3ccccc3C(=O)O)cc2)c2ccc(C(=O)NCc3cccc(C(F)(F)F)c3)cc12 [Example 100, 4′-((2,3-dimethyl-5-(3-(trifluoromethyl)benzylcarbamoyl)-1H-indol-1-yl)methyl)biphenyl-2-carboxylic acid]	281	(21%)	191	
Cc1c(C)n(Cc2ccc(-c3ccccc3C(=O)O)cc2)c2ccc(C(=O)NCc3ccc(-c4ccccc4)cc3)cc12 [Example 102, 4′-((5-(biphenyl-4-ylmethylcarbamoyl)-2,3-dimethyl-1H-indol-1-yl)methyl)biphenyl-2-carboxylic acid]	1.2	(29%)	247	
Cc1c(C)n(Cc2ccc(-c3ccccc3C(=O)O)cc2)c2ccc(C(=O)NCc3ccccc3Cl)cc12 [Example 108, 4′-((5-(2-chlorobenzylcarbamoyl)-2,3-dimethyl-1H-indol-1-yl)methyl)biphenyl-2-carboxylic acid]	535	(15%)	6	
Cc1c(C)n(Cc2ccc(-c3ccccc3C(=O)O)cc2)c2ccc(C(=O)NCc3cccc(Cl)c3)cc12 [Example 109, 4′-((5-(3-chlorobenzylcarbamoyl)-2,3-dimethyl-1H-indol-1-yl)methyl)biphenyl-2-carboxylic acid]	12	(21%)	2	
CCC[C@H](NC(=O)c1ccc2c(c1)c(C)c(C)n2Cc1ccc(-c2ccccc2C(=O)O)cc1)c1ccccc1 [Example 114, (S)-4′-((2,3-dimethyl-5-(1-phenylbutylcarbamoyl)-1H-indol-1-yl)methyl)biphenyl-2-carboxylic acid]	8	(14%)	0.8	
Cc1c(C)n(Cc2ccc(-c3ccccc3C(=O)O)cc2)c2ccc(C(=O)NC(C)c3cccc4ccccc34)cc12 (stereo not drawn) [Example 116, 4′-((2,3-dimethyl-5-(1-(naphthalen-1-yl)ethylcarbamoyl)-1H-indol-1-yl)methyl)biphenyl-2-carboxylic acid]	5	(16%)	2	
